Measured values reported in patent US20240299385A1 (ReWind Therapeutics NV, priority 2021, published 2024).

target: T1, human GPR17 receptor (Homo sapiens, UniProt Q13304); assay: Calcium mobilization functional assay (Fluo-8, FLIPR TETRA) in HEK-293 hGPR17 (Gα-q assay); format: cell-based; details: antagonism of MDL29,951 (~EC80) induced Ca2+ signal; cell line (HEK-293 hGPR17 or HEK-293 Suchi5 hGPR17) not given
T1 construct: host or cells: HEK-293
In short: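 Fluo-8-loaded HEK-293 hGPR17 cells (60 min dye loading, room temperature) were preincubated with compound for twenty minutes, then challenged with agonist MDL29,951 at ~EC80, 500 nM. Intracellular calcium release via Gα-q was recorded as FLIPR fluorescence for a further 2 minutes; compounds tested in duplicate.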

T1 sequence (Q13304 whole entry): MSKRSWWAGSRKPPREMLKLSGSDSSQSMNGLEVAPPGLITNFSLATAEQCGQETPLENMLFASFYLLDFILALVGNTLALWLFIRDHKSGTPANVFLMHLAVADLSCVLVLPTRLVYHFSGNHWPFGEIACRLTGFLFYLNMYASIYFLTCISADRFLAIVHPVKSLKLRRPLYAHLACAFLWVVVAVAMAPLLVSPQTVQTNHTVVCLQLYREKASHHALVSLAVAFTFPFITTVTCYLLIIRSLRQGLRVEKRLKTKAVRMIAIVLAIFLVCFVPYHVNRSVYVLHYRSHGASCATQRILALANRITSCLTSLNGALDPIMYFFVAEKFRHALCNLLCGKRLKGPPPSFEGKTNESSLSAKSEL

Structure (SMILES)	IC50 [µM]
COc1ccccc1-c1cc(S(=O)(=O)Nc2cc(F)c(OC(F)F)cc2F)c[nH]1 [Cpd 530, N-[4-(difluoromethoxy)-2,5-difluorophenyl]-5-(2-methoxyphenyl)-1H-pyrrole-3-sulfonamide]	< 0.5
O=S(=O)(Nc1ncc(F)cc1F)c1c[nH]c(-c2ccccc2F)c1 [Cpd 133, N-(3,5-difluoro-2-pyridyl)-5-(2-fluorophenyl)-1H-pyrrole-3-sulfonamide]	5 to 50
COCc1cccnc1-c1cc(S(=O)(=O)Nc2cc(F)c(C(F)(F)F)cc2F)c[nH]1 [Cpd 560, N-[2,5-difluoro-4-(trifluoromethyl)phenyl]-5-[3-(methoxymethyl)pyridin-2-yl]-1H-pyrrole-3-sulfonamide]	5 to 50
O=S(=O)(Nc1cc(F)c(C(F)(F)F)cc1F)c1c[nH]c(C2CCCC2)c1 [Cpd 132, 5-cyclopentyl-N-[2,5-difluoro-4-(trifluoromethyl)phenyl]-1H-pyrrole-3-sulfonamide]	0.5 to 5
COc1nc(OCC(F)F)c(F)cc1NS(=O)(=O)c1c[nH]cc1Cc1ccccc1 [Cpd 444, 4-benzyl-N-[6-(2,2-difluoroethoxy)-5-fluoro-2-methoxypyridin-3-yl]-1H-pyrrole-3-sulfonamide]	0.5 to 5
O=S(=O)(Nc1c(F)cc(C(F)(F)F)cc1F)c1c[nH]c(-c2ccccc2)c1 [Cpd 328, N-[2,6-difluoro-4-(trifluoromethyl)phenyl]-5-phenyl-1H-pyrrole-3-sulfonamide]	0.5 to 5
N#Cc1ccc(NS(=O)(=O)c2c[nH]cc2-c2ccccc2Cl)c(F)c1 [Cpd 222, 4-(2-chlorophenyl)-N-(4-cyano-2-fluoro-phenyl)-1H-pyrrole-3-sulfonamide]	5 to 50
N#Cc1ccc(NS(=O)(=O)c2c[nH]c(-c3ccc(F)cc3F)c2)c(F)c1 [Cpd 038, N-(4-cyano-2-fluoro-phenyl)-5-(2,4-difluorophenyl)-1H-pyrrole-3-sulfonamide]	< 0.5
Cc1cccc(-c2cc(S(=O)(=O)Nc3ccc(C#N)cc3F)c[nH]2)c1 [Cpd 005, N-(4-cyano-2-fluoro-phenyl)-5-(m-tolyl)-1H-pyrrole-3-sulfonamide]	< 0.5
Cc1cccc(C)c1-c1cc(S(=O)(=O)Nc2ccc(C#N)cc2F)c[nH]1 [Cpd 085, N-(4-cyano-2-fluoro-phenyl)-5-(2,6-dimethylphenyl)-1H-pyrrole-3-sulfonamide]	0.5 to 5
O=S(=O)(Nc1cc(F)c(C(F)(F)F)cc1F)c1c[nH]c(-c2ccc(Br)cn2)c1 [Cpd 345, 5-(5-bromo-2-pyridyl)-N-[2,5-difluoro-4-(trifluoromethyl)phenyl]-1H-pyrrole-3-sulfonamide]	0.5 to 5
COc1nc(Cl)c(F)cc1NS(=O)(=O)c1c[nH]cc1Cc1ccccc1 [Cpd 427, 4-benzyl-N-(6-chloro-5-fluoro-2-methoxypyridin-3-yl)-1H-pyrrole-3-sulfonamide]	0.5 to 5
N#Cc1ccc(NS(=O)(=O)c2c[nH]c(-c3cc(F)cc(F)c3)c2)c(F)c1 [Cpd 104, N-(4-cyano-2-fluoro-phenyl)-5-(3,5-difluorophenyl)-1H-pyrrole-3-sulfonamide]	0.5 to 5
N#Cc1cccc(-c2cc(S(=O)(=O)Nc3cc(F)c(C(F)(F)F)cc3F)c[nH]2)c1F [Cpd 564, 5-(3-cyano-2-fluorophenyl)-N-[2,5-difluoro-4-(trifluoromethyl)phenyl]-1H-pyrrole-3-sulfonamide]	0.5 to 5
COc1cccc(-c2cc(S(=O)(=O)Nc3cc(F)c(C(F)(F)F)cc3F)c[nH]2)n1 [Cpd 281, N-[2,5-difluoro-4-(trifluoromethyl)phenyl]-5-(6-methoxy-2-pyridyl)-1H-pyrrole-3-sulfonamide]	< 0.5
N#Cc1cc(F)c(NS(=O)(=O)c2c[nH]c(-c3ccc(F)cc3F)c2)cc1Cl [Cpd 525, N-(5-chloro-4-cyano-2-fluorophenyl)-5-(2,4-difluorophenyl)-1H-pyrrole-3-sulfonamide]	0.5 to 5
O=S(=O)(Nc1cc(F)c(OCC(F)F)cc1F)c1c[nH]cc1-c1cccc(F)c1 [Cpd 496, N-[4-(2,2-difluoroethoxy)-2,5-difluorophenyl]-4-(3-fluorophenyl)-1H-pyrrole-3-sulfonamide]	0.5 to 5
O=S(=O)(Nc1cc(F)c(C(F)(F)F)cc1F)c1c[nH]c(-c2cccc(F)c2)c1 [Cpd 114, N-[2,5-difluoro-4-(trifluoromethyl)phenyl]-5-(3-fluorophenyl)-1H-pyrrole-3-sulfonamide]	0.5 to 5
O=S(=O)(Nc1cc2cccnc2cc1F)c1c[nH]c(-c2ccccc2)c1 [Cpd 187, N-(7-fluoro-6-quinolyl)-5-phenyl-1H-pyrrole-3-sulfonamide]	0.5 to 5
COc1nc(Br)cnc1NS(=O)(=O)c1c[nH]cc1Cc1ccccc1 [Cpd 431, 4-benzyl-N-(5-bromo-3-methoxypyrazin-2-yl)-1H-pyrrole-3-sulfonamide]	5 to 50
N#Cc1cc(F)c(NS(=O)(=O)c2c[nH]c(-c3ccccn3)c2)cc1F [Cpd 353, N-(4-cyano-2,5-difluoro-phenyl)-5-(2-pyridyl)-1H-pyrrole-3-sulfonamide]	< 0.5

Structure (SMILES)	IC50 [µM]
Cc1cc(NS(=O)(=O)c2c[nH]c(-c3ccccc3F)c2)c(F)cc1C#N [Cpd 511, N-(4-cyano-2-fluoro-5-methylphenyl)-5-(2-fluorophenyl)-1H-pyrrole-3-sulfonamide]	< 0.5
O=S(=O)(Nc1cc(F)c(C(F)(F)F)cc1F)c1c[nH]c(-c2cccn3ccnc23)c1 [Cpd 565, N-[2,5-difluoro-4-(trifluoromethyl)phenyl]-5-imidazo[1,2-a]pyridin-8-yl-1H-pyrrole-3-sulfonamide]	0.5 to 5
COc1nc(OCC(F)F)c(F)cc1NS(=O)(=O)c1c[nH]c(-c2ccccc2)c1 [Cpd 436, N-[6-(2,2-difluoroethoxy)-5-fluoro-2-methoxypyridin-3-yl]-5-phenyl-1H-pyrrole-3-sulfonamide]	< 0.5
O=S(=O)(Nc1ccc(F)cc1F)c1c[nH]c(-c2ncccc2F)c1 [Cpd 160, N-(2,4-difluorophenyl)-5-(3-fluoro-2-pyridyl)-1H-pyrrole-3-sulfonamide]	5 to 50
Cn1cccc(-c2cc(S(=O)(=O)Nc3cc(F)c(C(F)(F)F)cc3F)c[nH]2)c1=O [Cpd 555, N-[2,5-difluoro-4-(trifluoromethyl)phenyl]-5-(1-methyl-2-oxopyridin-3-yl)-1H-pyrrole-3-sulfonamide]	< 0.5
Cc1c(F)cccc1-c1cc(S(=O)(=O)Nc2ccc(C#N)cc2F)c[nH]1 [Cpd 249, N-(4-cyano-2-fluoro-phenyl)-5-(3-fluoro-2-methyl-phenyl)-1H-pyrrole-3-sulfonamide]	0.5 to 5
N#Cc1ccc(NS(=O)(=O)c2c[nH]c(CC3CC3)c2)c(F)c1 [Cpd 622, N-(4-cyano-2-fluorophenyl)-5-(cyclopropylmethyl)-1H-pyrrole-3-sulfonamide]	0.5 to 5
O=S(=O)(Nc1cc(F)c(OC(F)F)cc1F)c1c[nH]c(-c2cc(Cl)ccc2F)c1 [Cpd 410, 5-(5-chloro-2-fluorophenyl)-N-[4-(difluoromethoxy)-2,5-difluorophenyl]-1H-pyrrole-3-sulfonamide]	0.5 to 5
N#Cc1ccc(NS(=O)(=O)c2c[nH]c(-c3cccc(Br)n3)c2)c(F)c1 [Cpd 374, 5-(6-bromo-2-pyridyl)-N-(4-cyano-2-fluoro-phenyl)-1H-pyrrole-3-sulfonamide]	< 0.5
Cc1cc(-c2cc(S(=O)(=O)Nc3cc(F)c(C(F)(F)F)cc3F)c[nH]2)cs1 [Cpd 457, N-[2,5-difluoro-4-(trifluoromethyl)phenyl]-5-(5-methylthiophen-3-yl)-1H-pyrrole-3-sulfonamide]	0.5 to 5
N#Cc1ccc(NS(=O)(=O)c2c[nH]c(-c3ccccc3)c2)c(F)c1F [Cpd 317, N-(4-cyano-2,3-difluoro-phenyl)-5-phenyl-1H-pyrrole-3-sulfonamide]	0.5 to 5
O=S(=O)(Nc1cc(F)c(Br)cc1F)c1c[nH]c(-c2ccc(F)cc2F)c1 [Cpd 447, N-(4-bromo-2,5-difluorophenyl)-5-(2,4-difluorophenyl)-1H-pyrrole-3-sulfonamide]	0.5 to 5
COc1cc(C(F)(F)F)ccc1NS(=O)(=O)c1c[nH]c(-c2ccccn2)c1 [Cpd 154, N-[2-methoxy-4-(trifluoromethyl)phenyl]-5-(2-pyridyl)-1H-pyrrole-3-sulfonamide]	0.5 to 5
O=S(=O)(Nc1cc(F)c(C(F)(F)F)cc1F)c1c[nH]c(-c2ccccc2F)c1 [Cpd 073, N-[2,5-difluoro-4-(trifluoromethyl)phenyl]-5-(2-fluorophenyl)-1H-pyrrole-3-sulfonamide]	< 0.5
O=S(=O)(Nc1cc(F)c(C(F)(F)F)cc1F)c1c[nH]c(-c2ccsn2)c1 [Cpd 278, N-[2,5-difluoro-4-(trifluoromethyl)phenyl]-5-isothiazol-3-yl-1H-pyrrole-3-sulfonamide]	< 0.5
N#Cc1ccc(NS(=O)(=O)c2c[nH]c(-c3ccc(F)cn3)c2)c(F)c1 [Cpd 347, N-(4-cyano-2-fluoro-phenyl)-5-(5-fluoro-2-pyridyl)-1H-pyrrole-3-sulfonamide]	0.5 to 5
Cc1[nH]cc(S(=O)(=O)Nc2ccc(C#N)cc2F)c1-c1ccccc1 [Cpd 461, N-(4-cyano-2-fluorophenyl)-5-methyl-4-phenyl-1H-pyrrole-3-sulfonamide]	5 to 50
N#Cc1ccc(NS(=O)(=O)c2c[nH]c(-c3cccc(F)c3OC3CC3)c2)c(F)c1 [Cpd 542, N-(4-cyano-2-fluorophenyl)-5-(2-cyclopropyloxy-3-fluorophenyl)-1H-pyrrole-3-sulfonamide]	< 0.5
COc1ccc(F)c(NS(=O)(=O)c2c[nH]c(-c3ccccn3)c2)c1 [Cpd 196, N-(2-fluoro-5-methoxy-phenyl)-5-(2-pyridyl)-1H-pyrrole-3-sulfonamide]	5 to 50
Cc1cc(C#N)ccc1NS(=O)(=O)c1c[nH]c(-c2ccccc2)c1 [Cpd 029, N-(4-cyano-2-methyl-phenyl)-5-phenyl-1H-pyrrole-3-sulfonamide]	5 to 50
